{
  "source": "patent US20100196430A1",
  "about": "“Controlled-released agricultural chemical formulation” (priority 2004, published 2010)",
  "assay_type_in_all_cases": "in vivo",
  "key": {"[1]": {"test_system": "yellow striped flea beetles", "assay": "Test of use as a seed treatment agent by combining with synthetic pyrethroids (rapeseed)", "conditions": "Inoculation 18 days after seeding; for No. of plant damage scars/3 plants, Average / No. of plant damage scars/3 plants, Repeat A / No. of plant damage scars/3 plants, Repeat B: 3 days in cage, 500 g of each active per 100 kg of rapeseed seeds; for Control rate: relative to untreated group", "protocol": "Wettable powder 2 obtained in Example 20 was dispersed in 2.8 ml of a solution (sticker solution), in which 5% by weight of polyvinyl alcohol (Gohsenol GL05S, Nippon Synthetic Chemical) and 1% by weight of a surfactant in the form of sodium lignin sulfonate ([…] RX-B, Takemoto Oil & Fat) were dissolved in 94% by weight of water, so as to contain […] of acetamiprid, 0.35 ml of this dispersion were placed in a vinyl bag provided with a zipper containing 8 g of rapeseed seeds, immediately after which the zipper was closed followed by mixing by shaking vigorously for 30 seconds to adhere the chemical to the rapeseed seeds. The seeds were then spread out in a thin layer in a vat and air-dried overnight at room temperature to obtain rapeseed seeds adhered with 500 g of acetamiprid per 100 kg of seeds.\n1 g of cypermethrin wettable powder (active ingredient: […]) was dispersed in 1.3 ml of distilled water, and 0.65 ml of this dispersion (20 mg as cypermethrin) were placed in a vinyl bag provided with a zipper containing 8 g of rapeseed seeds adhered with 500 g of acetamiprid per 100 kg of seeds, immediately after which the zipper was closed followed by mixing by shaking vigorously for 30 seconds to adhere the chemical to the rapeseed seeds. The seeds were then spread out in a thin layer in a vat and air-dried for 1 to 2 hours at room temperature followed by again placing in a vinyl bag provided with a zipper, adding 0.65 ml of the aforementioned dispersion and repeating the same procedure. These seeds were then spread out in a thin layer in a vat followed by allowing to air dry overnight at room temperature to obtain rapeseed seeds adhered with 500 g of cypermethrin and 500 g of acetamiprid per 100 kg of seeds.\nIn addition, wettable powder 2 obtained in Example 20 was dispersed in 1.1 g of bifenthrin SC (active ingredient: 7.2% by weight) so as to contain 80 mg of acetamiprid, and 0.55 ml of this dispersion (40 mg as bifenthrin and 40 mg of acetamiprid) were placed in a vinyl bag provided with a zipper containing 8 g of rapeseed seeds, followed immediately by mixing by shaking vigorously for 30 seconds to adhere the chemical to the seeds. The seeds were then spread out in a thin layer in a vat and air-dried overnight at room temperature to obtain rapeseed seeds adhered with 500 g of bifenthrin and 500 g of acetamiprid per 100 kg of seeds.\nThe resulting seeds were planted in a No. 2 flower pot containing alluvial soil and cultivated in a greenhouse. Eighteen days after seeding, rapeseed seedlings were transferred to a cage in which 100 adult yellow striped flea beetles had been released, and after allowing to stand for 3 days, the number of plant damage scars caused by the adult yellow striped flea beetles was counted for three plants in each test group. For the control, similar tests were carried out in the case of treating with 500 g of wettable powder 2, cypermethrin or bifenthrin alone per 100 kg of seeds, and in the case of non-treatment. Control rate (%)=((no. of scars of untreated group−no. of scars of treated group)/(no. of scars of untreated group))×100."}, "[2]": {"test_system": "yellow striped flea beetles", "assay": "Test of use as a cell tray drench treatment agent (Chinese cabbage)", "conditions": "for No. of plant damage scars/4 plants: counted 6 days after release", "protocol": "3.57 g of wettable powder 2 obtained in Example 20 were dispersed in 1 liter of water to prepare a chemical liquid. 0.5 ml of chemical liquid per plant were dropped onto Chinese cabbage seedlings at the 4 to 4.5 leaf stage cultured in cell trays from above using a pipette. On the day following chemical treatment, the treated seedlings were planted in No. 6 flower pots containing Kuroboku soil and cultivated in a greenhouse. Each pot was covered with a cylindrical cage at 2, 14 and 28 days after planting, 10 adult yellow striped flea beetles were released inside the cages, and the numbers of plant damage scars caused by the adult yellow striped flea beetles were counted for four pots in each test group 6 days after releasing the insect pests. For the control, similar tests were carried out in the case of treating with commercially available bifenthrin SC and in the case of non-treatment."}, "[3]": {"test_system": "Nephotettix cincticeps", "assay": "Test of use as a paddy treatment agent by seedling box drench treatment", "conditions": "for mortality at 0.03 ppm / mortality at 0.08 ppm / mortality at 0.12 ppm: Nephotettix cincticeps, soil, read-out: Insect mortality rate", "protocol": "Wettable powder 4 obtained in Example 22 was diluted with water to a predetermined concentration to prepare a chemical liquid. 10 ml per tray of the chemical liquid was dropped onto the surface of soil containing seedlings having a height of about 10 cm cultivated in small plastic trays filled with granular planting soil using a pipette. Following chemical treatment, the trays were covered with a cylindrical cage and 6 two-instar Nephotettix cincticeps were released inside followed by counting the number of […] at 3 and 7 days after releasing the insect pests. For the control, similar tests were carried out for the case of treating with imidacloprid, and in the case of non-treatment. The control imidacloprid was sprayed onto the plants after adjusting to 5% by weight in dimethylformamide containing 1.5% by weight of Tween 20 and diluting with water.\nCorrected insecticidal rate (%)=((survival rate in untreated group−survival rate in treated group)/survival rate in untreated group)×100"}},
  "note": "Like-named read-outs stand apart in the source and are kept apart here.",
  "data": [
    {"smiles": "Cc1c(COC(=O)[C@@H]2[C@H](/C=C(\\Cl)C(F)(F)F)C2(C)C)cccc1-c1ccccc1", "note": "(racemic) [Bifenthrin, bifenthrin]", "values": [
      {"measurement": "No. of plant damage scars/3 plants, Average", "setting": "[1]", "result": 270},
      {"measurement": "No. of plant damage scars/3 plants, Repeat A", "setting": "[1]", "result": 306},
      {"measurement": "No. of plant damage scars/3 plants, Repeat B", "setting": "[1]", "result": 234},
      {"measurement": "Control rate", "setting": "[1]", "result": 3.2, "unit": "%"},
      {"measurement": "Control rate", "setting": "[2]; After 2 days", "result": 87.1, "unit": "%"},
      {"measurement": "Control rate", "setting": "[2]; After 14 days", "result": 70.6, "unit": "%"},
      {"measurement": "Control rate", "setting": "[2]; After 28 days", "result": 40.7, "unit": "%"},
      {"measurement": "No. of plant damage scars/4 plants", "setting": "[2]; beetles released After 2 days from planting, 0.5 ml of chemical liquid per plant", "result": 4},
      {"measurement": "No. of plant damage scars/4 plants", "setting": "[2]; beetles released After 14 days from planting", "result": 103},
      {"measurement": "No. of plant damage scars/4 plants", "setting": "[2]; beetles released After 28 days from planting", "result": 934}
    ]},
    {"smiles": "CC1(C)C(C=C(Cl)Cl)C1C(=O)OC(C#N)c1cccc(Oc2ccccc2)c1", "note": "(centres unmarked) [Cypermethrin, cypermethrin]", "values": [
      {"measurement": "No. of plant damage scars/3 plants, Average", "setting": "[1]", "result": 269},
      {"measurement": "No. of plant damage scars/3 plants, Repeat A", "setting": "[1]", "result": 296},
      {"measurement": "No. of plant damage scars/3 plants, Repeat B", "setting": "[1]", "result": 241},
      {"measurement": "Control rate", "setting": "[1]", "result": 3.6, "unit": "%"}
    ]},
    {"smiles": "O=[N+]([O-])NC1=NCCN1Cc1ccc(Cl)nc1", "note": "[Imidacloprid, imidacloprid]", "values": [
      {"measurement": "Corrected insecticidal rate", "setting": "[3]; Concentration 0.03 ppm, After 3 days", "result": 83, "unit": "%"},
      {"measurement": "Corrected insecticidal rate", "setting": "[3]; Concentration 0.03 ppm, After 7 days", "result": 100, "unit": "%"},
      {"measurement": "Corrected insecticidal rate", "setting": "[3]; Concentration 0.08 ppm, After 3 days", "result": 63, "unit": "%"},
      {"measurement": "Corrected insecticidal rate", "setting": "[3]; Concentration 0.08 ppm, After 7 days", "result": 83, "unit": "%"},
      {"measurement": "Corrected insecticidal rate", "setting": "[3]; Concentration 0.12 ppm, After 3 days", "result": 100, "unit": "%"},
      {"measurement": "Corrected insecticidal rate", "setting": "[3]; Concentration 0.12 ppm, After 7 days", "result": 100, "unit": "%"},
      {"measurement": "mortality at 0.03 ppm", "setting": "[3]; 72 h, Concentration 0.03 ppm, After 3 days", "result": 83, "unit": "%"},
      {"measurement": "mortality at 0.08 ppm", "setting": "[3]; 72 h, Concentration 0.08 ppm, After 3 days", "result": 63, "unit": "%"},
      {"measurement": "mortality at 0.12 ppm", "setting": "[3]; 72 h, Concentration 0.12 ppm, After 3 days", "result": 100, "unit": "%"},
      {"measurement": "mortality at 0.03 ppm", "setting": "[3]; 168 h, Concentration 0.03 ppm, After 7 days", "result": 100, "unit": "%"},
      {"measurement": "mortality at 0.08 ppm", "setting": "[3]; 168 h, Concentration 0.08 ppm, After 7 days", "result": 83, "unit": "%"},
      {"measurement": "mortality at 0.12 ppm", "setting": "[3]; 168 h, Concentration 0.12 ppm, After 7 days", "result": 100, "unit": "%"}
    ]}
  ]
}
